pIC50, pKd: −log10 of the molar value. Where two headings read alike, the source gives them in different places.
What was measured:
[1] = test system: PANC1 (a human pancreatic carcinoma); experiment: IC50 activity in PANC1 cells; assay type: cell-based
Procedure: (§1) Compounds provided in Table 2 were prepared using methods similar to those described herein. The structures and IC50 activities of particular compounds in PANC1 (a human pancreatic carcinoma), TC32 (human ESFT cell line), and TC71 (human ESFT cell line) cells are summarized in Table 2.

[2] = test system: TC32 (human ESFT cell line); experiment: IC50 activity in TC32 cells; assay type: cell-based
Procedure: as §1

[3] = test system: TC71 (human ESFT cell line); experiment: IC50 activity in TC71 cells; assay type: cell-based
Procedure: as §1
(§2) Growth inhibition of ESFT cells was measured for various concentrations of particular compounds.

ESFT cells = experiment: Growth inhibition of ESFT cells; assay type: cell-based; details: ESFT cells growing in monolayer
Procedure: as §2

EWS-FLI1/RHA interaction = target: T1, EWS-FLI1/RHA interaction (Homo sapiens, UniProt Q01543+Q01844); experiment: Immunoblot/co-precipitation of RHA and EWS-FLI1 from treated TC32 cells; assay type: cell-based; details: TC32 cell lysates
T1 construct: endogenous in cells; host or cells: TC32
T1 sequence (Q01844+Q01543 with tags, fused parts or gaps): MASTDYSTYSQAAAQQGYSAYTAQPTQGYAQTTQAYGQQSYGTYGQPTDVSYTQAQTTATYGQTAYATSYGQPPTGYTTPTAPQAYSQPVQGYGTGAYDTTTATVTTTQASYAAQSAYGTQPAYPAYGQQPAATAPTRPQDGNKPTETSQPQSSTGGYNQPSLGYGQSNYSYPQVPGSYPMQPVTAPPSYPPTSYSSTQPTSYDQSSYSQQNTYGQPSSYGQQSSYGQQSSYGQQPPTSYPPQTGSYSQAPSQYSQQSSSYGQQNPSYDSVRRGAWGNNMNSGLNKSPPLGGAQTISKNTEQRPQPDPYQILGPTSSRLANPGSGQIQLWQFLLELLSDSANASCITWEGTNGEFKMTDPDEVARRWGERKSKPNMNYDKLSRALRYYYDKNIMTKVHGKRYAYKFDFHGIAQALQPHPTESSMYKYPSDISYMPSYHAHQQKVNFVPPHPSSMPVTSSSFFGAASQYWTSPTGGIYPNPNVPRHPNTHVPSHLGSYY

BSA = BSA (Bos taurus, UniProt P02769); experiment: Surface plasmon resonance binding to non-specific protein BSA; details: SPR, read-out: affinity for BSA
Procedure: Steady state kinetics were measured on a Biacore T100 instrument, as previously described (Erkizan H V, Kong Y, Merchant M, Schlottmann S, Barber-Rotenberg J S, Yuan L, et al. A small molecule blocking oncogenic protein EWS-FLI1 interaction with RNA helicase A inhibits growth of Ewing's sarcoma. Nat Med. 2009 July; 15(7):750-6. PubMed PMID: 19584866. Eng; Barber-Rotenberg J S, Selvanath), SPR sensograms are not shown.

GBM cell lines = experiment: Growth of GBM cell lines; assay type: cell-based; details: range over GBM cell lines
Source text: Seven cell lines were selected with a spectrum of genetic abnormalities that occur in GBM. […] A panel of GBM cell lines were acquired that represent the heterogeneity of the disease.

[4] = Rat pharmacokinetics, IV injection, observation; assay type: in vivo; details: rats, rapid injection; did not occur with slower infusion
Source text: One of the significant challenges in getting novel targeted therapy into GBM is overcoming the blood-brain barrier (BBB).

ES xenografts = experiment: ES xenograft tumor regression in mice; assay type: in vivo; details: 400 mg/kg intraperitoneal, three days, 6 total doses, tumors 300 mm^3
Procedure: FIG. 13A: Mice with ES xenografts were treated with 400 mg/kg compound or controls as indicated. Starting well-established tumors (300 mm^3), mice were treated with intraperitoneal compound for three days, 6 total doses. FIG. 13B: H and E stained tumors from same experiment.
YK-4-279 upon xenograft GBM tumors is evaluated by treating animals seven days after tumor injection and those with symptomatic tumors. Early tumors are screened with Xenogen, and size correlated with MRI, and treatment started when animals 5 mm^3 lesions. YK-4-279 passes the blood-brain barrier. […] The study will measure brain tumor volumes, animal symptoms, and overall survival. At necropsy, tumors and normal adjacent brain will be evaluated by immunohistochemistry for GBM markers, apoptosis, and FLI1 regulated target genes. […] FIG. 13A: Mice with ES xenografts were treated with 400 mg/kg compound or controls as indicated. Starting well-established tumors (300 mm^3), mice were treated with intraperitoneal compound for three days, 6 total doses. FIG. 13B: H and E stained tumors from same experiment.

EWS-FLI1 [5] = target: T2, EWS-FLI1 (Homo sapiens, UniProt Q01543); details: read-out: affinity (KD) for EWS-FLI1; cited from earlier work
T2 sequence (Q01543 220-452 limits assumed): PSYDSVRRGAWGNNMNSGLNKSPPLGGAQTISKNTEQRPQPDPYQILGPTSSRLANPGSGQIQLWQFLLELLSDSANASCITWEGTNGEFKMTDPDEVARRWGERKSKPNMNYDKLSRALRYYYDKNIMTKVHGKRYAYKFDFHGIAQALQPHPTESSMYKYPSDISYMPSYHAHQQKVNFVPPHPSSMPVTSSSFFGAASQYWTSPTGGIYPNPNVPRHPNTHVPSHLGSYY

Ewing Sarcoma xenograft = Ewing Sarcoma xenograft models; cited from earlier work
EWS-FLI1 [6] = target: T3, EWS-FLI1 (Homo sapiens, UniProt Q01543+Q01844); details: enantiomer specificity; cited from earlier work
T3 sequence (Q01543 220-452 limits assumed): T2 sequence (Q01543 220-452 limits assumed)

Sequence of BSA (P02769 25-607): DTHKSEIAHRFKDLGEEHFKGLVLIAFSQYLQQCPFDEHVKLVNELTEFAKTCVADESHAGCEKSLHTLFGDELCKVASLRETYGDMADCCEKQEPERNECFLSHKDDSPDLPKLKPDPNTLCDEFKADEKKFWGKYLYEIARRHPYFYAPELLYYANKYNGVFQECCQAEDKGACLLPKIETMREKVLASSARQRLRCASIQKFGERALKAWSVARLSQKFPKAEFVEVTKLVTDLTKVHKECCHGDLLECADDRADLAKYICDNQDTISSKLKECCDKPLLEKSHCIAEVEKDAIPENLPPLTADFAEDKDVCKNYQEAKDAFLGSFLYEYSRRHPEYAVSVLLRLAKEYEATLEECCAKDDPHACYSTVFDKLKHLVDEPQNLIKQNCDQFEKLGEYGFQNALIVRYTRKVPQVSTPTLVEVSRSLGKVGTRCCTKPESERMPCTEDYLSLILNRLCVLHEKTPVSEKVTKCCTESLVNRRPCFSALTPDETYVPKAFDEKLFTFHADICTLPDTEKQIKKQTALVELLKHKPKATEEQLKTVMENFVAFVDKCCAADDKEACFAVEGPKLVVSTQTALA

| pIC50 ([1]; Homo sapiens, PANC-1, PANC1 cells) | pIC50 ([1]; PANC1 cells, read-out: IC50 PANC 1) | pIC50 ([2]; Homo sapiens, TC-32, TC32 cells) | pIC50 ([2]; TC32 cells) | pIC50 ([3]; Homo sapiens, TC-71, TC71 cells) | pIC50 ([3]; TC71 cells) | interaction of RHA with EWS-FLI1 (EWS-FLI1/RHA interaction; co-precipitation) | pKd (BSA) | Structure (SMILES) | pIC50 (ESFT cells) | level of EWS-FLI1 or RHA (EWS-FLI1/RHA interaction; immunoblot) | pIC50 (GBM cell lines) | observation after IV injection [4] | tumor response (ES xenografts) | pKd (EWS-FLI1 [5]) | tumor growth (Ewing Sarcoma xenograft) | inhibition of functional activities of EWS-FLI1 (EWS-FLI1 [6]) |
| --- | --- | --- | --- | --- | --- | --- | --- | --- | --- | --- | --- | --- | --- | --- | --- | --- |
| 4.70 | 4.47 | 6.03 | 6.12 | 6.04 | 5.85 | did disrupt their interactions | 3.91 | COc1ccc(C(=O)CC2(O)C(=O)Nc3c(Cl)ccc(Cl)c32)cc1 (racemic) [YK-4-279] | 6.05 | did not directly affect the level of EWS-FLI1 or RHA | 5.00 to 6.30 | rats became somnolent after rapid injection | significant tumor regression | 5.02 | reduced tumor growth |  |
|  |  |  |  |  |  |  |  | COc1ccc(C(=O)C[C@@]2(O)C(=O)Nc3c(Cl)ccc(Cl)c32)cc1 [(S)-YK-4-279] |  |  |  |  | significant tumor regression |  |  | able to inhibit the functional activities of EWS-FLI1 |
